Experiment: Activation of TRAIL receptor in human T98G cells assessed as reduction in cel viability by Cell-titer-Glo luminescent cell viability assay
Assay type: cell-based

Point of comparison: N=C1S/C(=C\c2ccc(-c3ccc4c(c3)C(=O)NC4=O)o2)C(=O)N1c1ncc[nH]1, IC50 20 µM. Against it:
- COc1ccc(N2C(=N)S/C(=C\c3ccc(-c4cccnc4)o3)C2=O)cc1 — within 1.5-fold, 25 µM
- N=C1S/C(=C\c2ccc(-c3ccc4c(c3)C(=O)NC4=O)o2)C(=O)N1c1ccc(C(F)(F)F)cc1 — higher, > 30 µM
- COc1ccc(/C=C2\SC(=N)N(c3ccc(OC)cc3)C2=O)cc1 — higher, > 30 µM
- COc1ccc(N2C(=N)S/C(=C\c3ccc(-c4ccncc4)o3)C2=O)cc1 — the same, 20 µM
- COc1ccc(N2C(=N)S/C(=C\c3ccc(-c4cncnc4)o3)C2=O)cc1 — higher, > 30 µM
- N=C1S/C(=C\c2ccc(-c3ccc4c(c3)C(=O)NC4=O)o2)C(=O)N1c1ccc(Cl)cc1 — within 1.5-fold, 25 µM
- Cc1csc(N2C(=N)S/C(=C\c3ccc(-c4ccc5c(c4)C(=O)NC5=O)o3)C2=O)n1 — higher, > 30 µM
- N=C1S/C(=C\c2ccc(-c3ccc4c(c3)C(=O)NC4=O)o2)C(=O)N1c1ccccn1 — higher, > 30 µM
- CN1C(=N)S/C(=C\c2ccc(-c3ccc4c(c3)C(=O)NC4=O)o2)C1=O — higher, > 30 µM
- COc1ccc(N2C(=N)S/C(=C\c3ccc(-c4ccc5c(c4)C(=O)NC5=O)s3)C2=O)cc1 — 2-fold lower, 10 µM
- COc1ccc(N2C(=N)S/C(=C\c3ccc(-c4ccccc4)o3)C2=O)cc1 — higher, > 30 µM
- COc1ccc(N2C(=O)S/C(=C\c3ccc(-c4ccc5c(c4)C(=O)NC5=O)o3)C2=O)cc1 — higher, > 30 µM
- N=C1S/C(=C\c2ccc(-c3ccc4c(c3)C(=O)NC4=O)o2)C(=O)N1c1ccccc1 — higher, > 30 µM
- Cc1ccc(N2C(=N)S/C(=C\c3ccc(-c4ccc5c(c4)C(=O)NC5=O)o3)C2=O)cc1 — higher, > 30 µM
- COc1ccc(N2C(=N)S/C(=C\c3ccc(-c4ccc5c(c4)C(=O)N(Cc4ccccc4)C5=O)o3)C2=O)cc1 — higher, > 30 µM
- C=CCN1C(=N)S/C(=C\c2ccc(-c3ccc4c(c3)C(=O)NC4=O)o2)C1=O — higher, > 30 µM
- N=C1S/C(=C\c2ccc(-c3ccc4c(c3)C(=O)NC4=O)o2)C(=O)N1c1ccc(F)cc1 — the same, 20 µM
- COc1ccc(N2C(=N)S/C(=C\c3ccc(-c4ccc5c(c4)C(=O)N(C)C5=O)o3)C2=O)cc1 — higher, > 30 µM
- COc1ccc(N2C(=N)S/C(=C\c3ccc(-c4ccc5c(c4)C(=O)NC5=O)o3)C2=O)cc1 — higher, > 30 µM
- COc1cccc(N2C(=N)S/C(=C\c3ccc(-c4ccc5c(c4)C(=O)NC5=O)o3)C2=O)c1 — 2-fold lower, 10 µM
- CN(C)c1ccc(N2C(=N)S/C(=C\c3ccc(-c4ccc5c(c4)C(=O)NC5=O)o3)C2=O)cc1 — higher, > 30 µM
- N=C1S/C(=C\c2ccc(-c3ccc4c(c3)C(=O)NC4=O)o2)C(=O)N1c1ccc(Br)cc1 — 10-fold lower, 2 µM
- COc1ccc(N2C(=N)S/C(=C\c3ccc(-c4ccc(OC)c(F)c4)o3)C2=O)cc1 — the same, 20 µM
